# Reference: patent US8633314B2, “Forms of a multicyclic compound” (Cephalon, Inc., priority 2009, dated 2014)
# Key:
# Type in all cases: physicochemical
# [1] = Solid state stress stability (storage; XRPD and stability-indicating HPLC)
# Method: Typically 10 μL aliquots of the sample solutions were diluted to 1 mL with acetonitrile and the assay concentrations were determined from an average of duplicate injections using the following HPLC method. The purity and impurity analyses are done using conventional HPLC.
# Crystallization studies were performed to investigate polymorphism in 48 different solvents. Solvents were selected on the basis of acceptability (ICH Class 3 and 2) and to give a range of dielectric constants, dipole moments and functional groups. Two starting materials were selected: Form A0 and Lot 7 (a mixture of Form A0, Form HC0 and Form HD0). When possible, full characterization was performed on the new forms that were generated during the polymorphism screening of Compound I. This characterization consisted of: XRPD, thermal analysis, DVS, storage at 40° C./75% RH and purity.
# Stress stability studies were performed to get a timely impression of the influence of temperature and humidity on form stability. A stability-indicating HPLC assay method was developed for quantitation of Compound I and its major degradation product, 7-methoxy-1,2,3,11-tetrahydro-5,11-diaza-benzo[a]trindene-4,6-dione, previously referred to as “Compound E”.
# [2] = Variable temperature X-ray powder diffraction (VT-XRPD); settings: 150° C. to 200° C., after the dehydration
# Method: Variable temperature studies were performed under a nitrogen atmosphere with an Anton Paar TTK450 temperature chamber under computer control through an Anton Paar TCU100 temperature control unit. Two measurement schemes were used, restricted and continuous. In the restricted mode, measurements were made, only after the TK450 chamber reached the requested temperature. In the continuous mode, the sample was heated at 10° C./minute and fast scans were measured as the temperature changed. After the requested temperature was reached, the sample was cooled at 30 or 35° C./minute and a slower scan measured 25° C.
# [3] = Relative stability of slurries in water (XRPD of residual solid); settings: slurried overnight in 2 ml water, all conditions investigated
# Method: Two ml of water was added to a few milligrams of Compound I forms. The samples were slurried overnight. A small sample of solid was removed and analyzed by XRPD. […] The hydrate form appears to be more thermodynamically stable than Form A0 between 5 and 45° C.
# [4] = Well plate crystallization with added water (forms found)
# Method: B. Plates containing 10 volumes of Compound I (40 mg of Lot 7 in 400 μL) were heated from 20° C. to an initial temperature of 80° C. at a rate of 4.8° C./min and after 30 minutes, cooled at a slow (0.28° C./min), or fast (10° C./min) rate to a final temperature of 5° C. and kept at that temperature for 18 hours. The crystallization experiments were carried out in glass vial (4 mL) well plates, and solid material was isolated by filtration. The solid was dried at 57° C. for 10 hours.
# [5] = Dynamic vapor sorption (DVS)
# Method: Gravimetric vapor sorption experiments were carried out using the DVS-HT instrument (Surface Measurement Systems, London, UK). This instrument measures the uptake and loss of vapor gravimetrically using a recording ultra-microbalance with a mass resolution of ±0.1 μg. The vapor partial pressure (±1.0%) around the sample was controlled by mixing saturated and dry carrier gas streams using electronic mass flow controllers. The desired temperature was maintained at ±0.1° C.
# The samples (10-25 mg) were placed into the DVS-HT instrument at the desired temperature. Two types of dynamic vapor sorption experiments were performed: • 1. The sample was initially dried in stream of dry air (<0.1% relative humidity (RH)) for 20 hours to establish a dry mass and exposed to two 0-90% RH cycles (in 10% RH increments). • 2. The sample was exposed at 90% RH for 20 hours and exposed to two 90-0% RH cycles (in 10% RH increments). Infrared Spectrometry (FTIR)
# [6] = Mechanical stress: grinding by mortar and pestle, milling by Wig-L-Bug; settings: three five-minute grinding intervals
# Method: Approximately 100 mg of Compound I was ground at different times ranging from 5 to 27 min in an agate mortar. Samples were removed for XRPD and thermal analysis. The grinding process was stopped every 5 minutes to scrape and remix powder cakes at the curvature end of the jars to ensure homogenous grinding.
# A Wig-l-Bug® (Piketech, USA) was used to grind Compound I Form A0, HA0 and HB0 (mixture of Forms HC0 and HD0). Each sample (50 mg) was ground for periods of 5 and 10 minutes or until no change was observed. Each milling was carried out in a 2.82 cm^3 container using 0.9 g stainless steel ball ([…]). The vial is swung through a 6.5° arc at 3200 rpm, causing the ball to strike the end of the vial at over 100 Hz.
# [7] = Regular DVS (0 to 90% RH), listed as HC0
compound,measurement,setting,value
"COc1cccc2[nH]c3c4c(c5c(c3c12)C(=O)N(CN1CCN(C)CC1)C5=O)CCC4 [Compound I, 4,5,6,7-tetrahydro-11-methoxy-2-[(4-methyl-1-piperazinyl)methyl]-1H-cyclopenta[a]pyrrolo[3,4-c]carbazole-1,3(2H)-dione]",chemical degradation,[1]; 40° C. and 75% RH,not observed
same,chemical degradation,[1]; exposed to 110° C.,observed
"COc1cccc2[nH]c3c4c(c5c(c3c12)C(=O)N(CN1CCN(C)CC1)C5=O)CCC4 [Form B0, 4,5,6,7-tetrahydro-11-methoxy-2-[(4-methyl-1-piperazinyl)methyl]-1H-cyclopenta[a]pyrrolo[3,4-c]carbazole-1,3(2H)-dione]",solid-solid transformation (VT-XRPD),[2],no solid-solid transformation takes place
"COc1cccc2[nH]c3c4c(c5c(c3c12)C(=O)N(CN1CCN(C)CC1)C5=O)CCC4 [Form HA0, 4,5,6,7-tetrahydro-11-methoxy-2-[(4-methyl-1-piperazinyl)methyl]-1H-cyclopenta[a]pyrrolo[3,4-c]carbazole-1,3(2H)-dione]",Chemical Stability (HPLC (post 4 weeks at 40° C./75% RH (Area %))),[1]; 40° C./75% RH,99.0 Area %
same,HPLC % Compound I,"[1]; 40° C./75% RH, 0 days","99.6% Compound I,"
same,XRPD (form found),"[1]; 40° C./75% RH, 0 days",HA0
same,HPLC % Compound I,"[1]; 40° C./75% RH, 7 days","99.5% Compound I,"
same,XRPD (form found),"[1]; 40° C./75% RH, 7 days",HA0
same,HPLC % Compound I,"[1]; 40° C./75% RH, 26 days","99.0% Compound I,"
same,XRPD (form found),"[1]; 40° C./75% RH, 26 days",HA0
same,form after slurrying in water,[3],converted to the hydrate forms (mixture of Forms HC0 and HD0)
same,form produced on crystallization from aqueous media,[4]; aqueous media,a mixture of Forms HC0+HD0 is produced
same,Forms Found,"[4]; solvent not given, 0.175 volumes of water","HC0, HD0"
same,XRPD post DVS analysis,[5],No significant changes
same,DVS % increase in mass at 90% RH,[5],1.5%
same,weight decrease in DVS isotherm,[5]; between 20-30% RH,1.25%
same,second change in mass,[5]; second desorption phase,~0.4%
COc1cccc2[nH]c3c4c(c5c(c3c12)C(=O)N(CN1CCN(C)CC1)C5=O)CCC4 [Form HB0],factor of reduction in intensity of XRPD peak at 7.6° (2θ),[6],approximately 30
"COc1cccc2[nH]c3c4c(c5c(c3c12)C(=O)N(CN1CCN(C)CC1)C5=O)CCC4 [Form HC0, 4,5,6,7-tetrahydro-11-methoxy-2-[(4-methyl-1-piperazinyl)methyl]-1H-cyclopenta[a]pyrrolo[3,4-c]carbazole-1,3(2H)-dione]",Chemical Stability (HPLC (post 4 weeks at 40° C./75% RH (Area %))),[1]; 40° C./75% RH,99.0 Area %
same,HPLC % Compound I,"[1]; 40° C./75% RH, 0 days","92.6% Compound I,"
same,XRPD (form found),"[1]; 40° C./75% RH, 0 days",HC0
same,HPLC % Compound I,"[1]; 40° C./75% RH, 28 days","93.3% Compound I,"
same,HPLC % others,"[1]; 40° C./75% RH, 28 days",0.2% others
same,XRPD (form found),"[1]; 40° C./75% RH, 28 days",HC0
same,DVS % increase in mass at 90% RH,[5],0.44%
same,At 75% RH uptake,[5]; Irregular DVS (90 to 0% RH),0.3%
same,Total uptake at 90% RH,[5]; Irregular DVS (90 to 0% RH),0.4%
same,changes by XRPD re-analysis after DVS,[5]; Irregular DVS (90 to 0% RH),No significant changes
same,Total uptake at 90% RH,[5]; Regular DVS (0 to 90% RH),0.4%
same,changes by XRPD re-analysis after DVS,[5]; Regular DVS (0 to 90% RH),No significant changes
same,At 75% RH uptake,[5]; [7],0.3%
same,Total uptake at 90% RH,[5]; [7],0.4%
COc1cccc2[nH]c3c4c(c5c(c3c12)C(=O)N(CN1CCN(C)CC1)C5=O)CCC4 [Form S40],HPLC % Compound I,"[1]; 40° C./75% RH, 9 days","99.4% Compound I,"
same,XRPD (form found),"[1]; 40° C./75% RH, 9 days",transformed into monohydrate Form HC0
same,XRPD (form found),"[1]; 40° C./75% RH, 9 days, listed as S40",HC0
same,HPLC % Compound I,"[1]; 40° C./75% RH, 17 days","99.4% Compound I,"
same,XRPD (form found),"[1]; 40° C./75% RH, 17 days",HC0
same,HPLC % Compound I,"[1]; 40° C./75% RH, 31 days","99.4% Compound I,"
same,XRPD (form found),"[1]; 40° C./75% RH, 31 days",HC0
same,HPLC % Compound I,"[1]; 40° C./75% RH, 62 days","99.2% Compound I,"
same,XRPD (form found),"[1]; 40° C./75% RH, 62 days",remained in this state
same,XRPD (form found),"[1]; 40° C./75% RH, 62 days, listed as S40",HC0
